This is an account of results in EP1101492A1, “NOVEL REMEDIES FOR ALLERGIC DISEASES” (FUJI YAKUHIN KOGYO KABUSHIKI KAISHA, priority 1998, dated 2000).

Data set [1] has as its system mouse experimental atopic dermatitis models. Put plainly: Auricle edema in experimental atopic dermatitis model (anti-DNP IgE sensitization, DNFB elicitation). The data set is classed as in vivo, Balb/c mice. As to conditions: for % Inhibition IPR: auricle edema 1 hour post-elicitation; for % Inhibition IPR / % Inhibition LPR / % Inhibition vLPR: test compounds 60 mg/kg s.c., prednisolone 10 mg/kg i.p.; for % Inhibition IPR / % Inhibition LPR: once a day, 24 & 2 hours prior to DNFB-elicitation, vs untreated group; for % Inhibition LPR: auricle edema Day 1 post-elicitation; for % Inhibition vLPR: auricle edema Day 7 post-elicitation. As to the method: Intravenous injection of an anti-2,4-dinitrophenol (DNP) antibody (anti-DNP Ab, monoclonal IgE Ab; its antibody titer was 1 : 512 to 1 : 1024 by a rat heterologous passive cutaneous anaphylaxis reaction using a Wister rat) into a tail vein of female Balb/c mice (7-week old, body weight: 17 to 20 g, purchased from JAPAN SLC, Inc.) at a dose of […] per animal raised passive sensitization. Twenty four hours post-sensitization, 0.1% 2,4-dinitrofluorobenzene (DNFB; Nacalai Tesque, Inc.) in ethanol was painted onto both sides of a pair of mouse auricles at a dose of 10µL per each side for elicitation.
Fresh unsensitized mice were painted with 0.1% DNFB in ethanol onto their ear in the same manner as aforementioned and served as a control group. Not only immediately prior to elicitation but also 1 hour, 5 hours, daily between Days 1 and 14, and on Day 16 post-elicitation, ear thickness was measured using a dial thickness gauge (Peacock Co.). Each degree of auricle edemas was calculated: Auricular Edema (µm)=(Ear Thickness Post-Elicitation, µm) - (Ear Thickness immediately prior to Elicitation, µm) [formula]
Balb/c mice were passively sensitized with anti-DNP IgE Ab in the same manner as in Example 1. Twenty four hours later, 0.1% DNFB in ethanol was painted onto both sides of a pair of mouse auricles at a dose of 10 µL per each side for elicitation.
Immediately prior to elicitation, 1 hour and on Day 1 post-elicitation, auricle thickness was measured in the same manner as in Example 1. Each therapeutic efficacy is recorded as a percent inhibition wherein the "auricle edema (untreated group)" is used as a control. Auricle Edema Inhibition (%) = [ 1 -(Auricle Edema (Treated Group))/(Auricle Edema (Untreated Group))] × 100 (%) [formula]
Immediately prior to elicitation, and on Day 7 post-elicitation, auricle thickness was similarly measured. Each therapeutic efficacy is recorded as a percent inhibition wherein the auricle edema in the untreated group is used as a control.
Immediately prior to elicitation, and on Day 7 post-elicitation, auricle thickness was similarly measured. Each therapeutic efficacy is recorded as a percent inhibition wherein the auricle edema (untreated group) is used as a control.
Immediately prior to elicitation, at 1 and 4 hours and on Days 1, 3 and 7 post-elicitation, auricle thickness was similarly measured. From each auricle edema (µm) based on the auricle thickness immediately prior to elicitation, especially a prophylactically therapeutic efficacy of the test compound was evaluated.
Immediately prior to elicitation, at 0.5, 1 and 4 hours and on Days 1, 3 and 7 post-elicitation, auricle thickness was similarly measured. Each amount of auricle edemas was calculated (average± standard deviation).

Data set [2] in a line: Body weight gain in sensitized mice. The data set is classed as in vivo. The conditions noted are these: test compound 50 µg/ear/dose, prednisolone 5 µg/ear/dose, in ethanol painted twice a day, Days 1, 4 and 7, vs solvent control (ethanol). The protocol:
Experimental atopic dermatitis model mice sensitized in the same manner as in Example 1 were examined for influence on body weight gains.
Each mouse was measured for its body weight not only immediately before the start in painting but also on Days 1, 4 and 7 after the start in painting. Each gain in body weight was calculated and considered to indicate an effect on body weight changes affected by said treatments.

A short description of the next data set: Body weight gain in mice. The conditions noted are these: test compounds 60 mg/kg s.c., prednisolone 10 mg/kg i.p., once a day for 6 days (Days 0-5), average ± standard deviation; for Body Weight Gain, Observation Day 5: non-administered 0.50± 0.23; for Body Weight Gain, Observation Day 7: non-administered 0.80± 0.48; for Body Weight Gain, Observation Day 10: non-administered 1.07± 0.58.

The test system of data set [3] is guinea pig experimental bronchial asthma models. As to the kind of experiment: Experimental bronchial asthma model (ovalbumin inhalation): airway resistance and asthmatic death.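 Note: female Std:Hartley guinea pigs sensitized by inhaling nebulized ovalbumin once daily for 8 consecutive days, 8 to 11 animals per group.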 As to conditions: prednisolone 10 mg/kg orally.
The subject of the next data set is IgE. As to the kind of experiment: Serum IgE level in sensitized and DNFB-elicited mice (ELISA). It is filed as in vivo, Balb/c mice. The conditions noted are these: 100 µg/ear in ethanol painted twice a day, 1 hour pre-elicitation, 0.25, 4, 5 and 6 days post-elicitation; serum 7 days post-elicitation; average ± standard deviation; untreated 34.55 ± 8.89, healthy 11.79 ± 2.35. From the text: Ethanol alone was also painted onto both sides of a mouse left auricle. […] Blood was also drawn from unsensitized healthy mice and untreated mice and treated to give serum samples. Seven days post-elicitation, blood samples were drawn by cardiac puncture using a syringe treated with heparin, and then centrifuged to give serum samples.
A dilution of polyclonal goat anti-mouse IgE antibody (Bethyl Laboratories, Inc.; 500-fold dilution) in 0.1 M sodium carbonate-sodium bicarbonate buffer (pH 9.6) was added to each well of a 96-well microtest plate (MaxiSorp, Nunc, Inc.) at a rate of 100 µL/well and the resultant microtest plates were allowed to stand at about 4°C overnight in a refrigerator. Each well was rinsed 3 times with phosphate buffer (pH 7.4) containing 0.05% Tween 20. Next, 0.1 M sodium carbonate-sodium bicarbonate buffer (pH 9.6) containing 1 % bovine serum albumin was added to each well at a rate of 100 µL/well. The resultant microtest plates were allowed to stand at room temperature for 1 hour and washed 3 times. Thereafter, 2-fold serial dilutions of mouse serum samples were poured into each well of microtest plates at 100 µL/well, which was subjected to an antigen-antibody reaction at 4°C for 2 hours. […] The resultant enzymatic reaction products were measured at 405 nm.

Where [4] appears, read: daily from 3 to 6 days after DNFB-elicitation.
The mark [5] stands for this setting: daily from 1 day prior to through 5 days after DNFB-elicitation.
The mark [6] stands for this setting: asthmatic death due to cyanosis within several minutes after elicitation, Compound No. 130 15 mg/kg s.c., 24 and 2 hours prior to elicitation.
[7] abbreviates: test compounds 15 mg/kg s.c. (Compound No. 114: 30 mg/kg), 24 and 2 hours prior to elicitation, vs solvent control.

Method for Body weight gain in mice: Accordingly, for assessing the side-effect each of the following test compounds an action on body weight gains was examined.
Next the mice were measured for their body weight. Each body weight gain was calculated on Days 5, 7 and 10 post-administration based on the body weight just prior to administration.

Regarding `C[C@]12C=CC(=O)C=C1CC[C@@H]1[C@@H]2[C@@H](O)C[C@@]2(C)[C@H]1CC[C@]2(O)C(=O)CO` [Prednisolone, reference compound], in data set [1], the “% Inhibition IPR” value was determined as 36.8% and the “% Inhibition LPR” value is given as 29.9%. Further, the “% Inhibition vLPR” value in data set [1] (setting [4]) is 24.8%. Moreover, the “% Inhibition vLPR” value in data set [1] (setting [5]) is on record as 24.8%. In data set [2], the “gain in body weight (FIG. 10)” value is listed as “below that in the solvent control group”. In the data set “Body weight gain in mice”, the “Body Weight Gain, Observation Day 5” value was 0.00± 0.26; the “Body Weight Gain, Observation Day 7” value was found to be 0.03± 0.57; the “Body Weight Gain, Observation Day 10” value is given as 0.97± 0.47. Moreover, in data set [3] (setting [6]), the “% Mortality” value was found to be 22.2% and the “(Dead Animals)/(Tested Animals)” value is 2/9. Besides, the “% Survival” value in data set [3] (asthmatic death within several minutes after elicitation, test compounds 15 mg/kg s.c. (Compound No. 114: 30 mg/kg), water for injection 54.5, 0.5% methyl cellulose 66.7) is 75.0%. In addition, in data set [3] (setting [7]), the “% Amelioration in Airway Resistance, 1 Hour after Elicitation” value was 23.6%; the “% Amelioration in Airway Resistance, 6 Hours after Elicitation” value is on record as 14.8%; the “% Amelioration in Airway Resistance, Immediately after Elicitation” value amounted to 11.5%.
On to `CC(=N)NCCCC[C@H](NC(=O)[C@H](CC(C)C)C(CCCc1ccccc1)C(=O)NO)C(=O)NCCN(C)C.CC(=O)O.CC(=O)O` (mixture of isomers) [Compound No. 44, N^a-[4-(Hydroxyamino)-2(R)-isobutyl-3(RS)-(3-phenylpropyl)succinyl]-N^e-acetimidoyl-L-lysine N-(2-N',N'-dimethylaminoethyl)amide · 2 acetate], for which, in data set [1] (150 mg/kg orally once a day, compared to solvent control group, IPR 1 hour, LPR 1 day, vLPR 7 days), the “inhibitory efficacy on IgE-mediated auricle edema (FIG. 8)” value is “not only an inhibitory activity on the development of edemas in both IPR and LPR but also a remarkably strong inhibitory activity in vLPR”. In data set [1], the “% Inhibition IPR” value came out at 43.9% and the “% Inhibition LPR” value amounted to 43.6%. Also, the “% Inhibition vLPR” value in data set [1] (setting [4]) is on record as 65.6%. In addition, the “% Inhibition vLPR” value in data set [1] (setting [5]) is 22.0%. Besides, in the data set on IgE, the “Serum IgE Level” value came out at 26.70 ± 10.88 ng/mL. In the data set “Body weight gain in mice”, the “Body Weight Gain, Observation Day 5” value came out at 0.80± 0.30; the “Body Weight Gain, Observation Day 7” value came out at 1.08± 0.57; the “Body Weight Gain, Observation Day 10” value is listed as 1.23± 0.56.
